{"source": "patent US6048715A", "about": "“Two-phase partition affinity separation system and affinity separated cell-containing composition” (priority 1996, dated 2000)", "data": [{"molecular_target": "T1, CBDN1 (Cellulomonas fimi, UniProt P14090)", "T1 construct": "Cex leader peptide (secretion signal of the vector) (N); made in house; purified from the culture supernatant", "T1 sequence (P14090 33-184)": "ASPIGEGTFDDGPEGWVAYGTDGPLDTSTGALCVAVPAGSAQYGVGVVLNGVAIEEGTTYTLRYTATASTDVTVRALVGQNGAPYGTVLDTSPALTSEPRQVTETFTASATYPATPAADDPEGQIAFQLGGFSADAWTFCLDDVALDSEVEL", "assay": "Isothermal titration microcalorimetry of oligosaccharide binding", "details": "N1 binding, 35° C., Table 8", "source_text": "The PBP can be obtained following isolation and purification of the enzyme by clipping off the PBP from the remainder of the enzyme. For use in the phase separation system, the PBP is screened for binding to soluble phase-forming oligosaccharides. While any of a number of methods can be used for screening, including NMR alone, NMA/calorimetry, affinity electrophoresis alone, affinity electrophoresis/competition assay, and binding isotherms. Binding equilibrium studies using isothermal titration microcalorimetry (ITC) are preferred. The advantage of isothermal titration microcalorimetry […] in binding equilibrium studies derives from the fact that binding isotherms are defined by the experiment in terms of heats of reaction; as such, they allow a direct estimation of enthalpy (and entropy (changes in addition to the association constant. Thus, a single microcalorimetric titration provides a complete characterization of the binding energetics along with the binding isotherm. (Haynes et al., J. Colloid Interface Sci., (1994) 169:313; Colloids & Surfaces, (1994) 2:517.\nMicrocalorimetry was used to measure binding thermodynamics for CBDN1 to a wide range of water-soluble oligosaccharides with the aim of identifying a set of suitable ligands for the affinity partition system. […] For both oligosaccharides,CPDN1 binding is as tight or even tighter than nearly all PEG-based affinity ligands (e.g., Cibacron blue-PEG, Procion red-PEG, dinitrophenyl-PEG, diacetic acid-PEG) currently in use in affinity partition systems.", "units": {"-TΔS^o": "kcal/mol", "ΔH^o": "kcal/mol"}, "values": [{"smiles": "OC[C@H]1O[C@@H](O[C@H]2[C@H](O)[C@@H](O)[C@H](O[C@H]3[C@H](O)[C@@H](O)[C@H](O[C@H]4[C@H](O)[C@@H](O)[C@H](O[C@H]5[C@H](O)[C@@H](O)[C@H](O[C@H]6[C@H](O)[C@@H](O)C(O)O[C@@H]6CO)O[C@@H]5CO)O[C@@H]4CO)O[C@@H]3CO)O[C@@H]2CO)[C@H](O)[C@@H](O)[C@@H]1O", "note": "(stereo partly drawn) [Cellohexaose]", "-TΔS^o": 0.79, "ΔH^o": "-6.9 ± 0.2"}, {"smiles": "OC[C@H]1O[C@@H](O[C@H]2[C@H](O)[C@@H](O)[C@H](O[C@H]3[C@H](O)[C@@H](O)[C@H](O[C@H]4[C@H](O)[C@@H](O)[C@H](O[C@H]5[C@H](O)[C@@H](O)C(O)O[C@@H]5CO)O[C@@H]4CO)O[C@@H]3CO)O[C@@H]2CO)[C@H](O)[C@@H](O)[C@@H]1O", "note": "(stereo partly drawn) [Cellopentaose]", "-TΔS^o": 0.86, "ΔH^o": "-6.8 ± 0.2"}, {"smiles": "OC[C@H]1O[C@@H](O[C@H]2[C@H](O)[C@@H](O)[C@H](O[C@H]3[C@H](O)[C@@H](O)[C@H](O[C@H]4[C@H](O)[C@@H](O)C(O)O[C@@H]4CO)O[C@@H]3CO)O[C@@H]2CO)[C@H](O)[C@@H](O)[C@@H]1O", "note": "(stereo partly drawn) [Cellotetraose]", "-TΔS^o": "1.4 ± 0.1", "ΔH^o": "-6.4 ± 0.2"}]}]}
